Results from US20250382570A1, “GENERATION AND APPLICATION OF FUNCTIONAL HUMAN ASTROCYTES FROM PLURIPOTENT STEM CELLS” (The Regents of the University of California, priority 2022, published 2025).

Tested on: iAstrocytes
Test: Time-lapse imaging of phagocytosis of pHrodoRed-conjugated myelin by iAstrocytes
Type: cell-based, human
Settings: imaging over 24 h
Description: FIGS. 3A-3B: (FIG. 3A) iAstrocytes are compatible for study with microglia co-cultures. Cultured iAstrocytes are subsequently incubated with iPSC-derived microglia (Abud et al., 2017). (FIG. 3B) iAstrocytes are labeled with GFAP and iPSC-derived microglia are labeled with Iba1 (light grey). The differentiation protocols for both microglia and astrocytes are serum-free and thus, make them compatible to study together without the confounds of serum activation of glia. Astrocytes phagocytose pHrodoRed-labeled myelin.
(FIGS. 4A-4C, FIG. 4A: 0 hour; FIG. 4B, 12 hours; and FIG. 4C, 24 hours). Phagocytosis can be visualized by pHrodoRed internalization which is absent at time zero (FIG. 4A). Phagocytosis of pHrodoRed-conjugated myelin is detected in iAstrocytes at 12 h (FIG. 4B), which gradually increases with time (24 h, FIG. 4C). FIG. 4D graphically depicts total red object area (y-axis) versus time in hours (x-axis).

TGFβ: Growth factor stated as necessary for quiescent astrocytes; inhibits myelin phagocytosis by iAstrocytes
effect on phagocytosis of myelin by iAstrocytes: inhibited
